# Assay results from patent publication US4546076A, “Enzymatic process for the determination of beta-lactam antibiotics” (U C B Societe Anonyme, priority 1982, dated 1985).
# Experiments:
# Type in all cases: biochemical
# [1] = target: T1, D-alanyl-D-alanine-carboxypeptidase produced by Actinomadura R 39 (enzyme R 39), immobilized (Actinomadura sp., UniProt P39045); test: Determination of penicillin G in milk with immobilized enzyme R 39 (Example 1); details: for coloration observed / optical density at 460 nm / optical density found minus optical density of the blank sample / percentage residual enzymatic activity: 1 ml milk; for percentage residual enzymatic activity: 20 min
# T1 construct: which is excreted by Actinomadura R 39 when this microorganism; made in house; host or cells: Actinomadura R 39 (natural producer; deposit Institut Pasteur No. I-127), purified as in Frere et al., Biochem. J. 143 (1974) 233-240
# Method: (§1) A series of 1 ml milk samples each containing a known concentration of penicillin G and two 1 ml milk samples (blank and control) not containing penicillin G are prepared.
# (§2) 5.5 mg of immobilized enzyme R 39 (=3 picomols of enzyme) are added to each sample and the mixture is incubated for 20 minutes at 37° C.
# (§3) The milk is then separated from the immobilized enzyme by filtration and the immobilized enzyme is washed three times with 1 ml of 0.1M Hepes buffer (pH=7.7) containing 0.1M NaCl and 0.05M MgCl2.
# (§4) Either 20 μl of 0.1M Hepes buffer (pH=7.7) containing 0.1M NaCl and 0.05M MgCl2 and 10 μl of the substrate solution (in the case of the control sample and the samples containing penicillin G), or 20 μl of the Hepes buffer and 10 μl of water (in the case of the blank sample), are then added to the separated and washed immobilized enzyme. The mixture is incubated for 30 minutes at 37° C.
# (§5) At the end of this incubation, 2 μl of the D-amino acid oxidase suspension, 60 μl of the FAD solution, 10 μl of the peroxidase solution and 5 μl of the o-dianisidine solution are added respectively to the product obtained; the mixture is then incubated again for 10 minutes at 37° C.
# (§6) The optical density of the colored solutions obtained is then measured on a spectrophotometer. For this purpose, 1 ml of a methanol/water solution (proportions 1:1) is added to the cell and the optical density is measured at 460 nm.
# (§7) The optical density value found for the blank sample is subtracted from the optical density values found respectively for the control sample and for the other samples. Finally, the percentage residual enzymatic activity is calculated for each sample from the optical density values thus obtained.
# [2] = target: T1, D-alanyl-D-alanine-carboxypeptidase produced by Actinomadura R 39 (enzyme R 39), immobilized; test: Determination of penicillin G in serum with immobilized enzyme R 39 (Example 2); details: 1 ml serum; for percentage residual enzymatic activity: 20 min
# Method: as §1, §2, §3, §4, §5, §6, §7
# (§8) The procedure of Example 1 is followed, using the same reagents but replacing the 1 ml milk samples by 1 ml serum or 1 ml urine samples.
# [3] = target: T1, D-alanyl-D-alanine-carboxypeptidase produced by Actinomadura R 39 (enzyme R 39), immobilized; test: Determination of penicillin G in urine with immobilized enzyme R 39 (Example 2); details: 1 ml urine; for percentage residual enzymatic activity: 20 min
# Method: as §1, §2, §3, §4, §5, §6, §7, §8
# [4] = target: T1, D-alanyl-D-alanine-carboxypeptidase produced by Actinomadura R 39 (enzyme R 39), immobilized; test: Dosage of cephalosporin C in serum with immobilized enzyme R 39 at higher temperature (Example 4)
# Method: The procedure of Example 3 is followed but each incubation is carried out at 47° C. and at half the time.
# Moreover, to each ml sample of serum, there is previously added 100 μl of 0.5M (pH 7.7) Hepes buffer containing 0.5M NaCl and 0.25M MgCl2.
# [5] = target: T1, D-alanyl-D-alanine-carboxypeptidase produced by Actinomadura R 39 (enzyme R 39), immobilized; test: Dosage of cephalosporin C in serum with immobilized enzyme R 39 (Example 3)
# Method: as §1, §2, §3, §4, §5, §6, §7
# The procedure of Example 1 is followed, using the same reagents but replacing the 1 ml milk samples by 1 ml serum samples containing each a known concentration of cephalosporin C.
# [6] = penicillin G 0.0005 I.U./ml, 1st series
# [7] = penicillin G 0.0005 I.U./ml, 2nd series
# [8] = penicillin G 0.0010 I.U./ml, 1st series
# [9] = penicillin G 0.0010 I.U./ml, 2nd series
# [10] = penicillin G 0.0015 I.U./ml, 2nd series
# [11] = penicillin G 0.0020 I.U./ml, 1st series
# [12] = penicillin G 0.0020 I.U./ml, 2nd series
# [13] = penicillin G 0.0041 I.U./ml, 1st series
# [14] = penicillin G 0.0082 I.U./ml, 1st series
# [15] = cephalosporin C 1 ng/ml, 1 ml serum, each incubation at 47° C. and half the time
# [16] = cephalosporin C 2 ng/ml, 1 ml serum, each incubation at 47° C. and half the time
# [17] = cephalosporin C 10 ng/ml, 1 ml serum, each incubation at 47° C. and half the time
# [18] = cephalosporin C 1 ng/ml, 1 ml serum, 37° C.
# [19] = cephalosporin C 2 ng/ml, 1 ml serum, 37° C.
# [20] = cephalosporin C 10 ng/ml, 1 ml serum, 37° C.
# T1 sequence (P39045 50-538): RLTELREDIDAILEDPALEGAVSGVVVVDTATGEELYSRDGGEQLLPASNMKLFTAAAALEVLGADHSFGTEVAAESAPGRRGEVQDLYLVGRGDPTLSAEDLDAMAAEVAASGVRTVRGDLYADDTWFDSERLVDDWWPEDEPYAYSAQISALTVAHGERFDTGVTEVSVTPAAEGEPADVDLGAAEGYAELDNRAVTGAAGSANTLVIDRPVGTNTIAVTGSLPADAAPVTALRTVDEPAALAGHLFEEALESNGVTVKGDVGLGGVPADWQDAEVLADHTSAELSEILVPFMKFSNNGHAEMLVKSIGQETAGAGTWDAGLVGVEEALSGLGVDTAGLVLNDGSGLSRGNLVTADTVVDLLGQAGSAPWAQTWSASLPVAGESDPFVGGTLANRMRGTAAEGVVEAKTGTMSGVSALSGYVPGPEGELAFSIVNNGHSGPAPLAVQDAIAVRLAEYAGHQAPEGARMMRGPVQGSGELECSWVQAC
compound,measurement,setting,value
"CC1(C)S[C@@H]2[C@H](NC(=O)Cc3ccccc3)C(=O)N2[C@H]1C(=O)O [penicillin G, benzylpenicillin]",coloration observed,[1]; [6],brown
same,optical density at 460 nm,[1]; [6],0.170
same,optical density found minus optical density of the blank sample,[1]; [6],0.135
same,percentage residual enzymatic activity,[1]; [6],82%
same,coloration observed,[1]; [7],yellow-brown
same,optical density at 460 nm,[1]; [7],0.145
same,optical density found minus optical density of the blank sample,[1]; [7],0.110
same,percentage residual enzymatic activity,[1]; [7],69%
same,coloration observed,[1]; [8],yellow-brown
same,optical density at 460 nm,[1]; [8],0.150
same,optical density found minus optical density of the blank sample,[1]; [8],0.115
same,percentage residual enzymatic activity,[1]; [8],69%
same,coloration observed,[1]; [9],yellow-brown
same,optical density at 460 nm,[1]; [9],0.100
same,optical density found minus optical density of the blank sample,[1]; [9],0.065
same,percentage residual enzymatic activity,[1]; [9],41%
same,coloration observed,[1]; [10],yellow
same,optical density at 460 nm,[1]; [10],0.055
same,optical density found minus optical density of the blank sample,[1]; [10],0.020
same,percentage residual enzymatic activity,[1]; [10],12%
same,coloration observed,[1]; [11],light yellow
same,optical density at 460 nm,[1]; [11],0.035
same,optical density found minus optical density of the blank sample,[1]; [11],0.000
same,percentage residual enzymatic activity,[1]; [11],0%
same,coloration observed,[1]; [12],light yellow
same,optical density at 460 nm,[1]; [12],0.040
same,optical density found minus optical density of the blank sample,[1]; [12],0.005
same,percentage residual enzymatic activity,[1]; [12],3%
same,coloration observed,[1]; [13],light yellow
same,optical density at 460 nm,[1]; [13],0.040
same,optical density found minus optical density of the blank sample,[1]; [13],0.005
same,percentage residual enzymatic activity,[1]; [13],3%
same,coloration observed,[1]; [14],light yellow
same,optical density at 460 nm,[1]; [14],0.035
same,optical density found minus optical density of the blank sample,[1]; [14],0.000
same,percentage residual enzymatic activity,[1]; [14],0%
same,residual enzymatic activity,[1]; sample containing 0.002 I.U. or more per ml of milk,zero
same,concentration determined visually (light yellow coloration),[2],at least 0.003 I.U./ml
same,coloration observed,[2]; penicillin G 0.003 I.U./ml,light yellow
same,optical density at 460 nm,[2]; penicillin G 0.003 I.U./ml,0.035
same,optical density found minus optical density of the blank sample,[2]; penicillin G 0.003 I.U./ml,0.005
same,percentage residual enzymatic activity,[2]; penicillin G 0.003 I.U./ml,4%
same,coloration observed,[2]; penicillin G 0.010 I.U./ml,light yellow
same,optical density at 460 nm,[2]; penicillin G 0.010 I.U./ml,0.030
same,optical density found minus optical density of the blank sample,[2]; penicillin G 0.010 I.U./ml,0.000
same,percentage residual enzymatic activity,[2]; penicillin G 0.010 I.U./ml,0%
same,concentration determined visually (light yellow coloration),[3],at least 0.003 I.U./ml
same,coloration observed,[3]; penicillin G 0.003 I.U./ml,light yellow
same,optical density at 460 nm,[3]; penicillin G 0.003 I.U./ml,0.040
same,optical density found minus optical density of the blank sample,[3]; penicillin G 0.003 I.U./ml,0.010
same,percentage residual enzymatic activity,[3]; penicillin G 0.003 I.U./ml,8%
same,coloration observed,[3]; penicillin G 0.010 I.U./ml,light yellow
same,optical density at 460 nm,[3]; penicillin G 0.010 I.U./ml,0.035
same,optical density found minus optical density of the blank sample,[3]; penicillin G 0.010 I.U./ml,0.005
same,percentage residual enzymatic activity,[3]; penicillin G 0.010 I.U./ml,4%
CC(=O)OCC1=C(C(=O)O)N2C(=O)[C@@H](NC(=O)CCC[C@@H](N)C(=O)O)[C@H]2SC1 [cephalosporin C],remaining activity at 0.01 µg/mL,"[4]; 10 min, read-out: percentage residual enzymatic activity",0%
same,remaining activity at 0.001 µg/mL,"[4]; 10 min, cephalosporin C 1 ng/ml, 1 ml serum, each incubation at 47° C. and half the time, read-out: percentage residual enzymatic activity",41%
same,remaining activity at 0.002 µg/mL,"[4]; 10 min, cephalosporin C 2 ng/ml, 1 ml serum, each incubation at 47° C. and half the time, read-out: percentage residual enzymatic activity",0%
same,coloration observed,[4]; [15],light brown
same,optical density at 460 nm,[4]; [15],0.095
same,optical density found minus optical density of the blank sample,[4]; [15],0.060
same,coloration observed,[4]; [16],light yellow
same,optical density at 460 nm,[4]; [16],0.035
same,optical density found minus optical density of the blank sample,[4]; [16],0.000
same,coloration observed,[4]; [17],light yellow
same,optical density at 460 nm,[4]; [17],0.040
same,optical density found minus optical density of the blank sample,[4]; [17],0.005
same,remaining activity at 0.001 µg/mL,"[5]; 20 min, read-out: percentage residual enzymatic activity",44%
same,remaining activity at 0.002 µg/mL,"[5]; 20 min, cephalosporin C 2 ng/ml, 1 ml serum, 37° C., read-out: percentage residual enzymatic activity",8%
same,remaining activity at 0.01 µg/mL,"[5]; 20 min, cephalosporin C 10 ng/ml, 1 ml serum, 37° C., read-out: percentage residual enzymatic activity",0%
same,coloration observed,[5]; [18],light yellow
same,optical density at 460 nm,[5]; [18],0.085
same,optical density found minus optical density of the blank sample,[5]; [18],0.055
same,coloration observed,[5]; [19],light yellow
same,optical density at 460 nm,[5]; [19],0.040
same,optical density found minus optical density of the blank sample,[5]; [19],0.010
same,coloration observed,[5]; [20],light yellow
same,optical density at 460 nm,[5]; [20],0.030
same,optical density found minus optical density of the blank sample,[5]; [20],0.000
